Experimental findings from PubChem BioAssay (NCI) are described below.

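These data come from cells grown in 96-well plates and exposed to compound for 48 hours at five concentrations. The concentration for full growth arrest is given as TGI.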

Assay in all cases: growth of human tumour cells (NCI), 48 h
In assay [1] the test system is A549 NSCLC.
For assay [2], the system named is CCRF-CEM leukemia.
Assay [3] deals with KM12 colon.
Assay [4] deals with NCI-H226 lung.
The subject of assay [5] is NCI-H522 lung.
In assay [6] the test system is OVCAR-4 ovarian.
The subject of assay [7] is OVCAR-8 ovarian.
For assay [8], the system named is SF-268 CNS.
Assay [9] deals with SF-295 CNS.
Assay [10] concerns SN12C renal.
Assay [11] has as its system SR leukemia.
The subject of assay [12] is SW-620 colon.
The subject of assay [13] is UO-31 renal.
Assay [14] deals with RXF 393 renal.

In the case of `CSC1=N/C(=C\c2ccccc2)C(=O)N1CN1CCOCC1`, the TGI was > 100 µM in [1]; > 100 µM in assay [2]; > 100 µM in assay [3]; > 100 µM in [4]; > 100 µM in assay [5]; 90.8 µM in assay [6]. Besides, the TGI in [7], in assay [8], in assay [9], in assay [10], in assay [11] and in assay [12] was > 100 µM each time. The TGI in [13] was > 100 µM.
Regarding `O=[N+]([O-])c1ccc(OP(=O)(O)OCC2OC(CP(=O)(O)O)C(O)C2O)cc1` (stereo not given), the TGI in assay [1], in assay [2], in [3], in assay [5], in assay [6] and in assay [7] was > 100 µM throughout. Also, the TGI in [14], in assay [8], in assay [9], in assay [10], in [11] and in assay [12] was > 100 µM each time. In assay [13], the TGI is > 100 µM.
Turning to `COc1ccc(C(=O)/C=C/c2ccc(OCC#N)cc2)cc1OC`, the TGI in assay [1] is > 100 µM; in [2] it was 31.3 µM; in assay [3], 18.5 µM; in assay [4], 37.9 µM; in assay [5], 32.5 µM; in assay [6], > 100 µM. Besides, the TGI in [7] is > 100 µM; in assay [14], 33.8 µM; in assay [8], 85.3 µM; in assay [10], 32.3 µM; in assay [11], 61.2 µM; in assay [12], 23.4 µM. This compound also showed a TGI in assay [13] of 32.6 µM.
In the case of `Cc1ccc(O)c(-c2cc(-c3ccccc3)nc(/N=C\c3ccccc3)n2)c1`, the TGI in [1], in assay [2], in [3], in assay [4], in assay [5] and in assay [6] was > 100 µM throughout. Moreover, the TGI in [7], in assay [8], in assay [9], in assay [10], in assay [11] and in [12] was > 100 µM in each case. Besides, in [13], the TGI amounted to 13.5 µM.
For the compound `c1ccc2c(c1)ccc1nc3ccccn3c12`, the TGI in assay [1], in assay [2], in assay [3], in assay [4], in assay [7] and in assay [14] was > 100 µM each time. Besides, the TGI in assay [8], in assay [9], in [10], in assay [11], in assay [12] and in assay [13] was > 100 µM each time.
On to `Cn1c2c(c3ccccc31)CC(=O)N1CCCC(C1)CC21OCCO1` (stereo not given), for which the TGI in assay [1], in assay [2], in assay [3], in assay [4], in assay [6] and in assay [7] was > 100 µM throughout. Further, the TGI in assay [14], in [8], in assay [9], in assay [10], in [11] and in [12] was > 100 µM each time. Besides, in assay [13], the TGI was > 100 µM.
Turning to `CCCC(=O)n1[nH]c(=O)n(C(C)(C)C)c1=O`, the TGI in [1], in [2], in [3], in [4], in assay [6] and in assay [7] was > 100 µM each time. Moreover, the TGI in assay [14], in assay [8], in assay [9], in assay [10], in assay [11] and in assay [12] was > 100 µM in each case. The TGI in assay [13] was > 100 µM.
Turning to `CCOC(=O)C(Cc1ccc2c(c1)CCC2)Cc1ccc2c(c1)CCC2`, the TGI in [1], in assay [2], in [5], in assay [6], in [7] and in [14] was > 100 µM each time. In addition, the TGI in [8] is > 100 µM; in assay [9], > 100 µM; in [11], 60.1 µM; in assay [12] it was > 100 µM; in assay [13], > 100 µM.
Regarding `O=C(OCC(Cl)(Cl)Cl)N1CC[C@@H](C2CCCCC2)C1`, the TGI in assay [1] was > 100 µM; in assay [2], 46.7 µM; in [3], 31.8 µM; in assay [5], 43.1 µM; in assay [6] it was 42.2 µM; in assay [14] it was 37.1 µM. Besides, the TGI in assay [8] was 34.3 µM; in assay [9], 38.9 µM; in [10] it was > 100 µM; in [11], 69.4 µM; in [13], 40.2 µM.
`O=C(Nc1ccccc1)c1cc2c(cc1Cl)SC(NNCCO)=NS2(=O)=O`: the TGI in assay [2], in [3], in assay [4], in assay [6], in [7] and in assay [14] was > 100 µM in each case. Further, the TGI in assay [8], in [9], in [11], in assay [12] and in assay [13] was > 100 µM each time.
In the case of `O=C(/C=C/c1cc(F)ccc1F)OCCc1ccccc1`, the TGI in assay [1] was > 100 µM; in [2], > 100 µM; in assay [3], > 100 µM; in [4] it was > 100 µM; in assay [5], > 100 µM; in assay [6], 47.4 µM. In addition, the TGI in assay [7], in assay [14], in [8], in assay [11], in assay [12] and in assay [13] was > 100 µM each time.
